24 compounds from PubChem BioAssay (NCI) can be followed below.

Structures are written as SMILES.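 In this assay, cells in 96-well plates receive the compound at five concentrations for 48 hours. Endpoints are linearly interpolated between the surrounding concentrations. GI50 = concentration required for 50% inhibition of growth. TGI: concentration producing complete growth inhibition.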

Among the test systems are CAKI-1 renal; PC-3 prostate; M14 melanoma; OVCAR-8 ovarian; HCT-15 colon; HCT-116 colon; HCC-2998 colon; ACHN renal; KM12 colon; BT-549 breast.
Assay in all cases: NCI anticancer screen, dose series, 48 h

As for `C=CCP(=O)(CC=C)C(Cl)Cl`, the TGI with CAKI-1 renal, in the assay on PC-3 prostate, in the assay on M14 melanoma, with OVCAR-8 ovarian, with HCT-15 colon and in the assay with HCT-116 colon was greater than 100 µM throughout. For the same compound, the TGI in the assay on HCC-2998 colon and in the assay with ACHN renal was greater than 100 µM throughout.

As for `COC(=O)C1C(=O)N(C)C(=O)N2CCCC12` (stereo unspecified), the TGI with CAKI-1 renal, in the assay with PC-3 prostate, in the assay on M14 melanoma, with KM12 colon, with OVCAR-8 ovarian and with HCT-15 colon was greater than 100 µM throughout. Besides, the TGI with HCC-2998 colon and in the assay with ACHN renal was greater than 100 µM in each case.

Consider `CCc1cc2c(c3c1CCCC3=O)CC1(Cc3ccc(C(=O)OC)cc3C1)C2` (stereo unspecified), for which the TGI with CAKI-1 renal, in the assay on PC-3 prostate, with M14 melanoma, with KM12 colon, in the assay on OVCAR-8 ovarian and with HCT-15 colon was greater than 100 µM in each case. The TGI in the assay with HCT-116 colon, with HCC-2998 colon and in the assay on ACHN renal was greater than 100 µM in each case.

On to `Cc1ccccc1N=C(N)Nc1ccccc1C`, for which the TGI in the assay on CAKI-1 renal, in the assay with PC-3 prostate, with M14 melanoma, in the assay on KM12 colon, with OVCAR-8 ovarian and with HCT-15 colon was greater than 100 µM each time. The TGI in the assay with HCT-116 colon was greater than 100 µM; in the assay on HCC-2998 colon, 62.1 µM; in the assay on ACHN renal, greater than 100 µM.

With `COc1ccc(-c2oc3cc(O)cc(O)c3c(=O)c2OC)cc1`, the TGI with CAKI-1 renal is 60 µM; in the assay with PC-3 prostate, greater than 100 µM; in the assay on M14 melanoma, greater than 100 µM; in the assay on OVCAR-8 ovarian it was greater than 100 µM; in the assay with HCT-15 colon, greater than 100 µM; in the assay on HCT-116 colon, greater than 100 µM. The values for the TGI in the assay with HCC-2998 colon and with ACHN renal were 62.9 µM and greater than 100 µM, respectively.

As to `COc1cc(C2c3cc4c(cc3C3OC[C@@H]2C3CO)OCO4)cc(OC)c1OC` (stereo partly specified), the TGI with CAKI-1 renal was greater than 100 µM; with PC-3 prostate, greater than 100 µM; with M14 melanoma, greater than 100 µM; in the assay with BT-549 breast, 97.6 µM; with KM12 colon, greater than 100 µM; in the assay with OVCAR-8 ovarian it was greater than 100 µM. Besides, the values for the TGI in the assay on HCT-15 colon, with HCT-116 colon and in the assay on ACHN renal were 71.5 µM, greater than 100 µM and greater than 100 µM, respectively. For the same compound, in the assay with HCT-116 colon, the GI50 is 30.3 µM.

Regarding `Cc1cc(=O)[nH]c(NN2C(Cl)C(=O)C2c2ccc([N+](=O)[O-])cc2)n1` (stereo unspecified), the TGI in the assay on M14 melanoma was 23 µM; in the assay on OVCAR-8 ovarian, 82.5 µM; in the assay with HCT-15 colon, 22.5 µM; in the assay with HCT-116 colon, 22.3 µM; in the assay with HCC-2998 colon, 31.1 µM; with ACHN renal, 33.7 µM.

`O=C(O)c1ccccc1N=Cc1ccc(N(CCCl)CCCl)cc1`: the TGI is 34.5 µM in the assay on CAKI-1 renal; greater than 100 µM with KM12 colon; greater than 100 µM in the assay on OVCAR-8 ovarian; greater than 100 µM in the assay with HCT-15 colon; greater than 100 µM in the assay with HCT-116 colon; greater than 100 µM in the assay with HCC-2998 colon.

On to `CC(C)(C)[Si](C)(C)OCc1cccc(OCCOc2cccc(CO[Si](C)(C)C(C)(C)C)c2[N+](=O)[O-])c1[N+](=O)[O-]`, for which the TGI with CAKI-1 renal, in the assay with PC-3 prostate, with M14 melanoma, in the assay on BT-549 breast, in the assay with KM12 colon and in the assay on OVCAR-8 ovarian was greater than 100 µM in each case. Also, the TGI in the assay on HCT-15 colon, in the assay with HCT-116 colon and with ACHN renal was greater than 100 µM in each case.

Turning to `CC1(C)CC2(CC(C)(C)N1O)NC(=O)OC2=O`, the TGI in the assay on CAKI-1 renal, in the assay with KM12 colon, in the assay with OVCAR-8 ovarian, in the assay with HCT-15 colon, with HCT-116 colon and in the assay on HCC-2998 colon was greater than 100 µM each time.

Consider `COc1cccc(N[C@@H]2c3cc4c(cc3C(c3cc(OC)c(O)c(OC)c3)[C@H]3C(=O)OCC32)OCO4)c1` (stereo partly specified), for which the TGI is 2.12 µM in the assay on CAKI-1 renal; 7.06 µM in the assay with KM12 colon; greater than 23.1 µM with OVCAR-8 ovarian; 2.39 µM in the assay with HCT-15 colon; 18.7 µM in the assay with HCT-116 colon; 3.79 µM in the assay on HCC-2998 colon.

Consider `O=c1[nH]n(Cc2ccccc2)c2ccc([N+](=O)[O-])cc12`, for which the TGI in the assay on CAKI-1 renal, in the assay on PC-3 prostate, in the assay with M14 melanoma, in the assay with KM12 colon, in the assay on OVCAR-8 ovarian and in the assay with HCT-15 colon was greater than 100 µM throughout. For the same compound, the TGI in the assay on HCT-116 colon, in the assay on HCC-2998 colon and with ACHN renal was greater than 100 µM each time.

Turning to `O=c1oc(C(C(F)(F)F)C(F)(F)F)nc2ccccc12`, the TGI with CAKI-1 renal, in the assay with PC-3 prostate, with M14 melanoma, in the assay with OVCAR-8 ovarian, with HCT-15 colon and in the assay on HCT-116 colon was greater than 100 µM throughout. In addition, the TGI with HCC-2998 colon and in the assay with ACHN renal was greater than 100 µM in each case.

In the case of `COc1cc(C2C(Cl)C(=O)N2c2c(C)n(C)n(-c3ccccc3)c2=O)ccc1O` (stereo unspecified), the TGI in the assay with CAKI-1 renal is greater than 100 µM; in the assay on PC-3 prostate, greater than 100 µM; in the assay on M14 melanoma, 30.7 µM; in the assay with BT-549 breast, 45 µM; in the assay with KM12 colon, 44.6 µM; with OVCAR-8 ovarian, 43.9 µM. The figures for the TGI in the assay on HCT-116 colon and in the assay with ACHN renal were 19.3 µM and 34.9 µM, respectively.

Take `COc1ccc(OC)c(SC(CC(=O)c2ccccc2)c2ccccc2)c1` (stereo unspecified): the TGI in the assay with CAKI-1 renal turned out to be 28.5 µM; in the assay with PC-3 prostate, 33.9 µM; in the assay with M14 melanoma, 31 µM; in the assay on KM12 colon it was 15.2 µM; in the assay with OVCAR-8 ovarian it was 28.7 µM; in the assay with HCT-15 colon, 35.4 µM. Further, the TGI was 11 µM in the assay with HCT-116 colon, 31.6 µM in the assay with HCC-2998 colon and 39 µM in the assay on ACHN renal.

Regarding `CC(C)=CCNc1nc(Cl)nc2nc[nH]c12`, the TGI in the assay with CAKI-1 renal is greater than 100 µM; with PC-3 prostate it was greater than 100 µM; in the assay with M14 melanoma, greater than 100 µM; with KM12 colon it was greater than 100 µM; in the assay with OVCAR-8 ovarian, greater than 100 µM; in the assay with HCT-116 colon, 69.8 µM. Moreover, the TGI in the assay with HCC-2998 colon and in the assay with ACHN renal was greater than 100 µM each time.

With `CC(C)/C(Cl)=N\OC(NC(=O)P(=O)(c1ccccc1)c1ccccc1)(C(F)(F)F)C(F)(F)F`, the TGI in the assay on CAKI-1 renal turned out to be 46.3 µM; in the assay with PC-3 prostate it was 34.4 µM; in the assay with M14 melanoma it was 15.8 µM; in the assay with KM12 colon it was 23.1 µM; in the assay with OVCAR-8 ovarian it was 32 µM; in the assay with HCT-15 colon it was 37.8 µM. The TGI is 21.5 µM with HCT-116 colon, 33.4 µM in the assay on HCC-2998 colon and 16.3 µM in the assay on ACHN renal.

As for `COc1cc2cc(C(=O)N3CC(COS(C)(=O)=O)c4ccc(O)cc43)[nH]c2c(OC)c1OC` (stereo unspecified), the GI50 with CAKI-1 renal is less than 0.0001 µM. The TGI was less than 0.0001 µM with CAKI-1 renal; 0.0033 µM with KM12 colon; 0.149 µM with OVCAR-8 ovarian; 0.000858 µM in the assay with HCT-15 colon; 0.138 µM in the assay with HCT-116 colon; less than 0.0001 µM in the assay with HCC-2998 colon. The same compound returned a TGI in the assay with ACHN renal of less than 0.0001 µM.

For `CCOP(=O)(O)CN1CCNCCN(CP(=O)(O)OCC)CCNCC1`, the TGI in the assay on CAKI-1 renal, in the assay with PC-3 prostate, with BT-549 breast, in the assay on KM12 colon, in the assay with OVCAR-8 ovarian and in the assay on HCT-15 colon was greater than 100 µM throughout. The TGI in the assay with HCT-116 colon and in the assay with ACHN renal was greater than 100 µM throughout.

On to `CCN=C1C=CC(=C(c2ccc(N(CC)CC)cc2)c2ccc(N(CC)CC)cc2)c2ccccc21`, for which the GI50 is 0.0335 µM in the assay on CAKI-1 renal; 0.184 µM with M14 melanoma; 0.107 µM in the assay on BT-549 breast; 0.299 µM in the assay with HCT-15 colon; 0.194 µM in the assay with ACHN renal. For the same compound, the TGI is 0.273 µM in the assay on CAKI-1 renal; 1.22 µM in the assay on M14 melanoma; 0.602 µM in the assay on BT-549 breast; 1.21 µM in the assay with HCT-15 colon; 1.07 µM with ACHN renal.

Turning to `Cc1ccccc1-c1nc2c(C(=O)NCCN(C)C)cccc2[nH]1`, the TGI in the assay with CAKI-1 renal, in the assay on KM12 colon, with OVCAR-8 ovarian, with HCT-15 colon, in the assay with HCT-116 colon and in the assay with HCC-2998 colon was greater than 100 µM each time.

`Cc1ccc(S(=O)(=O)Nc2nnc(S(N)(=O)=O)s2)cc1`: the TGI in the assay with CAKI-1 renal, with M14 melanoma, in the assay with BT-549 breast, in the assay with KM12 colon, in the assay with OVCAR-8 ovarian and in the assay on HCT-15 colon was greater than 100 µM in each case. The TGI with HCT-116 colon, in the assay with HCC-2998 colon and in the assay on ACHN renal was greater than 100 µM throughout.

As to `CN=C(/N=c1\ssc(=NC)n1C)N(C)C`, the TGI in the assay on CAKI-1 renal, in the assay with M14 melanoma, with KM12 colon, in the assay on OVCAR-8 ovarian, with HCC-2998 colon and with ACHN renal was greater than 100 µM each time.

Turning to `O=C1CC(=O)n2cnc3cccc(c32)N1`, the TGI in the assay on CAKI-1 renal, in the assay on PC-3 prostate, in the assay with M14 melanoma, with BT-549 breast, in the assay on KM12 colon and in the assay with OVCAR-8 ovarian was greater than 100 µM throughout. The TGI with HCT-15 colon and with HCT-116 colon was greater than 100 µM throughout.
